Assay results taken from ChEMBL document CHEMBL3588771, “Discovery of 5-Amino-N-(1H-pyrazol-4-yl)pyrazolo[1,5-a]pyrimidine-3-carboxamide Inhibitors of IRAK4” (ACS Med Chem Lett, 2015).

Tests used:
in vitro [1] = conditions: dog, MDCK
in vivo [2] = conditions: rat, plasma, iv, 0.5 mg/kg
in vivo [3] = conditions: rat, po, 1 mg/kg
in vitro [4] = conditions: pig, LLC-PK1

| Papp (in vitro [1]) | clearance (in vivo [2]) | bioavailability (in vivo [3]) | Papp (in vitro [4]) | SMILES |
| --- | --- | --- | --- | --- |
| < 2 ×10⁻⁶ cm/s | – | – | – | Cn1cc(NC(=O)c2cnn3ccc(N[C@H]4CCCC[C@H]4N)nc23)c(C(N)=O)n1 |
| – | 56 mL/min/kg | 0% | 2 ×10⁻⁶ cm/s | Cn1cc(NC(=O)c2cnn3ccc(N[C@@H]4CCCC[C@@H]4N)nc23)c(C(N)=O)n1 |
| 17 ×10⁻⁶ cm/s | – | – | – | Cn1cc(NC(=O)c2cnn3ccc(N[C@@H]4CCCC[C@@H]4N)nc23)c(C#N)n1 |

The next lines start with the compound.

| SMILES | Papp (in vitro [1]) | clearance (in vivo [2]) | bioavailability (in vivo [3]) | Papp (in vitro [4]) |
| --- | --- | --- | --- | --- |
| Cn1cc(NC(=O)c2cnn3ccc(N[C@@H]4CCCC[C@@H]4N)nc23)c(C(F)(F)F)n1 | 16 ×10⁻⁶ cm/s | 98 mL/min/kg | 5% | – |
| Cn1cc(NC(=O)c2cnn3ccc(N[C@@H]4CCCC[C@@H]4N)nc23)c(C(F)F)n1 | 13 ×10⁻⁶ cm/s | – | – | – |
| Cn1cc(NC(=O)c2cnn3ccc(N[C@@H]4CCCC(F)(F)[C@@H]4N)nc23)c(C(F)F)n1 | 29 ×10⁻⁶ cm/s | 29 mL/min/kg | 46% | – |
| Cn1cc(NC(=O)c2cnn3ccc(N[C@@H]4CCC(F)(F)C[C@@H]4N)nc23)c(C(F)(F)F)n1 | 26 ×10⁻⁶ cm/s | – | – | – |
| Cn1cc(NC(=O)c2cnn3ccc(N4CC[C@H](F)[C@@H](N)C4)nc23)c(C(F)(F)F)n1 | 28 ×10⁻⁶ cm/s | – | – | – |
